Reference: patent publication US11293024B2, “Antisense antibacterial compounds and methods” (priority 2014, dated 2022)
Values belong to the compound of their own block, whether it stands above or below them. {(RXR)4XB} = cell-penetrating peptide (RXR)4XB; {Ac} = acetyl (COCH3) cap

Assays:
Format in all cases: cell-based, Pseudomonas aeruginosa
[1] = system: P. aeruginosa PAO1 biofilm; test: Biofilm prevention in MBEC plate (crystal violet); conditions: 5 μM PPMO, 2 μg/mL PMBN, MHII, 20 hours; one-way ANOVA p<0.0001
Description: P. aeruginosa PAO1 (5×10^5 cfu/mL) was grown in MHII media in an MBEC plate for 20 hours either alone or in the presence of 5 μM of the indicated PPMOs, PMBN alone, (RXR)4, or a scrambled PPMO. All conditions contained 2 μg/mL of PMBN unless indicated otherwise. Pegs were processed for crystal violet or visualized by microscopy at 20 hours. […] FIGS. 6B-6D: Spinning Disk confocal microscopy images of 20 hour biofilm treated with (FIG. 6B) No PPMO, (FIG. 6C) 5 μM Scr PPMO #41, (FIG. 6D) 5 μM RpsJ PPMO #14. PAO1 GFP is shown in green and biofilm is shown in red. The biofilm is stained with 200 μg/mL of Concanavalin A, Alexafluor 647 conjugate.
Pseudomonas aeruginosa Biofilm Prevention in MBEC Plate Protocol
• 1. 10 mL of MH is inoculated with a single colony and incubated at 37° C. and ˜250 rpm for about 5 hours. • 2. The sample is centrifuged for 10 minutes at ˜4000 rpm at 4° C., the supernatant is decanted and the pellet resuspended in 10 mL of 150 mM NaCl or PBS. This step is repeated to wash the pellet 3 times. • 3. The sample is resuspended in 10 mL 150 mM NaCl or PBS. • 4. The OD600 of the sample is taken and cfu/mL is calculated. (OD600 usually between 0.65-0.80). • 5. A Bacterial Working Solution (BWS) is made by inoculating 10 mL of MH to 5×10^5 cfu/mL final concentration. • 6. 2 μL/mL of 1 mg/mL stock PMBN is added to the BWS and vortexed 3 times. • 7. 1 mL of BWS is pipetted into each separate Eppendorf tube for each condition that is tested. • 8. An appropriate amount of PPMO is added to each Eppendorf tube and vortexed 3 times. • 9. Outside wells are filled with fresh MH, NaCl, or PBS to keep the outer pegs from drying out. • 10. One column of the MBEC plate is filled with 150 μL per well from each Eppendorf tube (one condition per column). • 11. Pegs are placed into the MBEC plate and the edges covered with a breathable membrane. • 12. The MBEC plate is incubated for 18-20 hours at 37° C. and 110 rpm. Day 2:
1. […] The final OD570 of the 10× dilution of solution should be approximately 0.500 absorbance. […]
2. OD reading: The OD570 for the 96-well plate from step 1e is determined. […]

[2] = system: P. aeruginosa PAO1; test: MIC of Ampicillin as a function of AmpR PPMO and PMBN concentration
Excerpt: An AmpR PPMO combined with PMBN restores activity of Ampicillin in P. aeruginosa PAO1.
The ability to use PPMOs as adjunctive therapeutics to restore antibiotic sensitivity to existing drugs could be an intriguing way to explore treatment of multidrug-resistant pathogens that are increasingly being found in chronically infected patients. Frequently encountered resistance genes (β-lactamases, efflux pumps) were targeted. […] An exemplary PPMO, as set forth in Table 5 and illustrated below, was designed to target AmpR in P. aeruginosa, a global transcriptional regulator that regulates β-lactamases such as AmpC. […] Testing the AmpR PPMO in animal models would be a reasonable alternative approach to thinking of antisense as adjuvant therapy with traditional antibiotics.

[3] = system: panel of P. aeruginosa clinical isolates; test: MIC of PPMOs with sub-inhibitory concentrations of Colistin (polymyxin E); conditions: Colistin alone at either 1 or 0.5 μg/ml (depending on the strain)
Description: MICs are indicated by color and numerical value as in FIG. 1. All MICs were performed in the presence of 1 μg/mL of Colistin unless otherwise noted (*Strains with an asterisk were tested with 0.5 μg/mL of Colistin).
The overnight culture is plated to determine CFU/ml of starting inoculum. From the overnight culture 4 μl is taken into 10 ml of fresh medium and mixed well to obtain a bacterial working suspension. From the 10 ml, 50 μl is taken into 450 μl of saline. Serial dilutions of 10^−2, 10^−3 and 10^−4 are plated on BA. If Polymyxin B Nonapeptide (PMBN) is to be added, 4 μl/ml of PMBN is added from a stock of 1 mg/ml (in water) to the bacterial suspension for a 4 μg/ml final PMBN concentration.
For every PPMO to be tested, the following is done: 6.8 μl of a 1 mM PPMO stock is added to 413.2 μl of bacterial working suspension and vortexed. 200 μl is placed in the first row (A) of a 96-well plate in duplicate. 100 μl of bacterial working suspension is added to rows B thru F. Row A is mixed well by pipetting 10 times. Then 100 μl from each well of row A is added to the 100 μl of bacterial working suspension in each well of row B and mixed well 10 times. Serial dilutions are continued in the same manner through to row F. Finally, 100 μl in the last row is removed and discarded. […]
The plate is read in a plate reader to measure OD600. […]

[4] = system: P. aeruginosa strains that are multidrug resistant (strain T63547); test: MIC in multidrug resistant P. aeruginosa strains; conditions: strain T63547 (CF sputum; resistant to extended-spectrum penicillins, cephalosporins, quinolones, carbapenems)
Description: In addition, MIC values of 8 μM or less in P. aeruginosa strains that are multidrug resistant have been achieved. For example, strain T63547 was isolated from the sputum of a CF patient and was resistant to extended-spectrum penicillins, cephalosporins, quinolones and carbapenems. The RpsJ PPMOs and the RpmB PPMO had MIC values of 4 μM. PPMOs also retained activity in mucoid strains of P. aeruginosa (such as strain H27925; CF sputum sample). This is a critically important finding, as mucoid Pseudomonas poses significant treatment challenges.

Compound: PPMO #2: LpxC PMO GTTGTTTGATC, 5′ TEG, 3′ (RXR)4XB CPP
prevention of biofilm (crystal violet) [1]: statistically significant prevention of biofilm

Compound: PPMO #28: ampR PMO GTCGAACCAAT, 5′ (RXR)4XB CPP, 3′ COCH3 (all phosphorodiamidate morpholino (PMO), 5' {(RXR)4XB}, 3' {Ac})
MIC of Ampicillin ([2]; in the presence of 32 μM AmpR PPMO and 4 μg/ml PMBN): 4 µg/mL

Compound: polymyxin E [Colistin]
growth inhibition by Colistin alone [3]: did not inhibit growth

MIC ([2]; Pseudomonas aeruginosa, PAO1, in the absence of PPMO): 512 µg/mL
Compound: CC1(C)S[C@@H]2[C@H](NC(=O)[C@H](N)c3ccccc3)C(=O)N2[C@H]1C(=O)O [Ampicillin, ampicillin, reference compound]

Compound: PPMO #5: RpmB PMO CTCTAGACATG, 5′ TEG, 3′ (RXR)4XB CPP
MIC [4]: 4 µM | prevention of biofilm (crystal violet) [1]: statistically significant prevention of biofilm
